Reference: patent publication US20210261621A1, “Preparation of Dilipid Polymixins and Use Thereof as Antimicrobial Adjuvants” (priority 2018, published 2021)
Converted amounts (≈) assume the structure as drawn. “And” between values parts separate entries of the source, which are not always exact repeats. Equal values may be shown once. Read-outs that look alike come from different tables or passages of the source. Positions of bridges follow the written chain, without caps; N, C: chain ends. Non-standard residues stand in square brackets, D forms with d. Residues, ends and D or L forms follow the SMILES beside them. *: point of attachment. Octanoyl = CCCCCCCC(=O)*; Dab = NCC[C@H](N)C(=O)O

Columns and labels:
[1] = system: E. coli CANWARD-2011 97615; format: cell-based, Escherichia coli
In short: (§1)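 Overnight cultures were standardized to 0.5 McFarland, diluted 1:50 into Mueller-Hinton broth for a final inoculum near 5×10^5 CFU/mL, then mixed with two-fold serially diluted compound. Plates were incubated 18 h at 37° C. following CLSI guidelines.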

[2] = system: pig erythrocytes
[3] = system: P. aeruginosa PAO1; set-up: MICDrug / MICDrug in combo / MIC of adjuvant in combo: unit not given beside the values
[4] = system: P. aeruginosa; test: MIC comparison over the P. aeruginosa strains tested; format: cell-based, Pseudomonas aeruginosa; settings: all eleven P. aeruginosa strains tested (Table 2)
Text: Specifically, addition of another lipid component to the amine side-chain of Dab1 reduced polymyxin's activity against Escherichia coli, P. aeruginosa, Stenotrophomonas maltophilia, A. baumannii, Klebsiella pneumoniae and Enterobacter cloacae. However, the reduction of activity against P. aeruginosa was not as drastic relative to other Gram-negative pathogens. […] We believe that this selectivity for P. aeruginosa is due to differences in exopolysaccharides and lipopolysaccharides between Gram-negative bacteria. This finding may imply the possibility of developing antipseudomonal polymyxins for pathogen-specific therapy.
The in vitro antibacterial activity of the compounds studied were assessed by broth microdilution susceptibility testing following CLSI guidelines. Bacterial cultures were grown overnight prior to the assay. The overnight grown cultures were diluted in saline to 0.5 McFarland turbidity, followed by 1:50 dilution in Mueller-Hinton broth (MHB) for inoculation to a final concentration of approximately 5×10^5 colony forming units/mL. Testing was performed on 96-well plates where the tested compounds were 2-fold serially diluted in MHB and incubated with equal volumes of bacterial inoculum at 37° C. for 18 h. […] Wells containing MHB with or without bacterial cells were used as positive or negative control, respectively.

[5] = system: P. aeruginosa CANWARD-2011 96846; format: cell-based, Pseudomonas aeruginosa
In short: as §1

For `CCCCCCCC(=O)NCC[C@H](NC(=O)CCCCCCC)C(=O)N[C@H](C(=O)N[C@@H](CCN)C(=O)N[C@H]1CCNC(=O)[C@H]([C@@H](C)O)NC(=O)[C@H](CCN)NC(=O)[C@H](CCN)NC(=O)[C@H](CC(C)C)NC(=O)[C@@H](Cc2ccccc2)NC(=O)[C@H](CCN)NC1=O)[C@@H](C)O` [Compound 2, Dioctanoic Acid (Di-C8) Polymyxin] (Octanoyl-[Dab](Octanoyl)T[Dab][Dab][Dab][dF]L[Dab][Dab]T; lactam 4-C), the MIC [1] was 64 µg/mL (≈ 48.6 µM), the “% Hemolysis at 512 μg/mL of polymyxin” value [2] was 6.2% and the “MIC of adjuvant alone (MIC1, MIC2, MIC3, MIC4, MIC5, MICPMBN)” value ([3]; adjuvant alone, one value per checkerboard, in µg/mL) was 8 and 4. The Interpretation ([3]; combination with Aztreonam) was “Additive (An FIC index of ≤0.5, 0.5<x≤4, or >4 denotes for synergistic, additive or antagonistic interaction, respectively)”, the Interpretation ([3]; combination with Ceftazidime) was “Additive (An FIC index of ≤0.5, 0.5<x≤4, or >4 denotes for synergistic, additive or antagonistic interaction, respectively)” and the Interpretation ([3]; combination with Chloramphenicol) was “Synergy (An FIC index of ≤0.5, 0.5<x≤4, or >4 denotes for synergistic, additive or antagonistic interaction, respectively)”. The Interpretation ([3]; combination with Ciprofloxacin) was “Additive (An FIC index of ≤0.5, 0.5<x≤4, or >4 denotes for synergistic, additive or antagonistic interaction, respectively)”, the Interpretation ([3]; combination with Clindamycin) was “Synergy (An FIC index of ≤0.5, 0.5<x≤4, or >4 denotes for synergistic, additive or antagonistic interaction, respectively)” and the Interpretation ([3]; combination with Doripenem) was “Additive (An FIC index of ≤0.5, 0.5<x≤4, or >4 denotes for synergistic, additive or antagonistic interaction, respectively)”. For the same molecule, the Interpretation ([3]; combination with Doxycycline) was “Additive (An FIC index of ≤0.5, 0.5<x≤4, or >4 denotes for synergistic, additive or antagonistic interaction, respectively)”, the Interpretation ([3]; combination with Fosfomycin) was “Additive (An FIC index of ≤0.5, 0.5<x≤4, or >4 denotes for synergistic, additive or antagonistic interaction, respectively)” and the Interpretation ([3]; combination with Gentamicin) was “Additive (An FIC index of ≤0.5, 0.5<x≤4, or >4 denotes for synergistic, additive or antagonistic interaction, respectively)”. For the same molecule, the Interpretation ([3]; combination with Linezolid) was “Additive (An FIC index of ≤0.5, 0.5<x≤4, or >4 denotes for synergistic, additive or antagonistic interaction, respectively)”, the Interpretation ([3]; combination with Meropenem) was “Additive (An FIC index of ≤0.5, 0.5<x≤4, or >4 denotes for synergistic, additive or antagonistic interaction, respectively)” and the Interpretation ([3]; combination with Minocycline) was “Synergy (An FIC index of ≤0.5, 0.5<x≤4, or >4 denotes for synergistic, additive or antagonistic interaction, respectively)”. For the same molecule, the Interpretation ([3]; combination with Moxifloxacin) was “Additive (An FIC index of ≤0.5, 0.5<x≤4, or >4 denotes for synergistic, additive or antagonistic interaction, respectively)”, the Interpretation ([3]; combination with Novobiocin) was “Synergy (An FIC index of ≤0.5, 0.5<x≤4, or >4 denotes for synergistic, additive or antagonistic interaction, respectively)” and the Interpretation ([3]; combination with Piperacillin) was “Additive (An FIC index of ≤0.5, 0.5<x≤4, or >4 denotes for synergistic, additive or antagonistic interaction, respectively)”. For the same molecule, the Interpretation ([3]; combination with Pleuromutilin) was “Additive (An FIC index of ≤0.5, 0.5<x≤4, or >4 denotes for synergistic, additive or antagonistic interaction, respectively)”, the Interpretation ([3]; combination with Rifampicin) was “Additive (An FIC index of ≤0.5, 0.5<x≤4, or >4 denotes for synergistic, additive or antagonistic interaction, respectively)” and the Interpretation ([3]; combination with Streptomycin) was “Additive (An FIC index of ≤0.5, 0.5<x≤4, or >4 denotes for synergistic, additive or antagonistic interaction, respectively)”. For the same molecule, the Interpretation ([3]; combination with Tobramycin) was “Additive (An FIC index of ≤0.5, 0.5<x≤4, or >4 denotes for synergistic, additive or antagonistic interaction, respectively)”, the Interpretation ([3]; combination with Trimethoprim) was “Additive (An FIC index of ≤0.5, 0.5<x≤4, or >4 denotes for synergistic, additive or antagonistic interaction, respectively)” and the Interpretation ([3]; combination with Vancomycin) was “Additive (An FIC index of ≤0.5, 0.5<x≤4, or >4 denotes for synergistic, additive or antagonistic interaction, respectively)”. The “MIC of adjuvant in combo” value ([3]; in combination with Aztreonam) was “(4)”, the “MIC of adjuvant in combo” value ([3]; in combination with Ceftazidime) was “(2)” and the “MIC of adjuvant in combo” value ([3]; in combination with Chloramphenicol) was “(2)”. The “MIC of adjuvant in combo” value ([3]; in combination with Ciprofloxacin) was “(4)”, the “MIC of adjuvant in combo” value ([3]; in combination with Clindamycin) was “(2)” and the “MIC of adjuvant in combo” value ([3]; in combination with Doripenem) was “(4)”. The “MIC of adjuvant in combo” value ([3]; in combination with Doxycycline) was “(4)”, the “MIC of adjuvant in combo” value ([3]; in combination with Fosfomycin) was “(4)” and the “MIC of adjuvant in combo” value ([3]; in combination with Gentamicin) was “(0.125)”. The “MIC of adjuvant in combo” value ([3]; in combination with Linezolid) was “(4)”, the “MIC of adjuvant in combo” value ([3]; in combination with Meropenem) was “(4)” and the “MIC of adjuvant in combo” value ([3]; in combination with Minocycline) was “(2)”. The “MIC of adjuvant in combo” value ([3]; in combination with Moxifloxacin) was “(2)”, the “MIC of adjuvant in combo” value ([3]; in combination with Novobiocin) was “(2)” and the “MIC of adjuvant in combo” value ([3]; in combination with Piperacillin) was “(4)”. The “MIC of adjuvant in combo” value ([3]; in combination with Pleuromutilin) was “(2)”, the “MIC of adjuvant in combo” value ([3]; in combination with Rifampicin) was “(1)” and the “MIC of adjuvant in combo” value ([3]; in combination with Streptomycin) was “(4)”. The “MIC of adjuvant in combo” value ([3]; in combination with Tobramycin) was “(0.125)”, the “MIC of adjuvant in combo” value ([3]; in combination with Trimethoprim) was “(4)” and the “MIC of adjuvant in combo” value ([3]; in combination with Vancomycin) was “(4)”. The “fold lower MIC than colistin” value [4] was 4-8 fold and the MIC [5] was 8 µg/mL (≈ 6.08 µM).
